In US20060263302A1, “Systemic oxygenation via gastric perfusion with perfluorocarbon (PFC)” (Thomas Jefferson University, priority 2005, published 2006):
Values joined by “and” are separate entries in the source; they are usually repeats but may differ in a detail not shown here. Identical values can stand only once.

Tests used:
Sus scrofa pigs = test: Peritoneal perfusion with perfluorocarbon in pigs made hypoxic by ventilation with subatmospheric oxygen; arterial blood gases; type: in vivo; conditions: for Fitted mean PaO2 / Observed mean PaO2: pigs, peritoneal perfusion; for Fitted treatment effect: mean PaO2 difference perfluorocarbon versus saline / Observed treatment effect: mean PaO2 difference perfluorocarbon versus saline: oxygenation on
Experimental: Animals: Fifteen Sus scrofa pigs weighing 45-55 kg were used for the experiments. All experiments were approved by the Thomas Jefferson University Institutional Animal Care and Use Committee. The care and handling of all animals were in accord with United States Department of Agriculture guidelines.
Surgical procedure: The animals were induced with Telazol (Fort Dodge Animal Health, Fort Dodge, Iowa) 5 mg/kg injected intramuscularly (IM), after which an intravenous catheter was placed in an ear vein and 30 mg of Propofol (Baxter, Irvine, Calif.) was injected intravenously (IV). The animals were then intubated with a 7.5 mm internal diameter endotracheal tube (Mallinckrodt Inc., St. Louis, Mo.) and maintained with isoflurane inhalation anesthesia, using intermittent Propofol injections for any evidence of discomfort or awakening. The animals were placed on a Harvard Apparatus Dual Phase Control Respirator Pump (South Natick, Mass.) mechanical ventilator with a tidal volume of 10-15 ml/kg and a rate of 12-15 breaths per minute. Prior to subjecting the animal to hypoxia, the respiratory rate was occasionally adjusted in an effort to maintain a neutral pH, as determined by arterial blood gas measurements. Electrocardiography leads were placed in the standard 3-lead positions on each animal, starting at the time of induction, and continuously monitored throughout the experiment. Oxygen saturation was also measured with a Vet/Ox Plus 4700 (SDI, Waukesha, Wis.) pulse oxymeter with the probe placed on the animal's tongue. Once under general anesthesia and in the supine position, a cervical cut down was performed through which a Swan-Ganz right heart catheter (Edwards Lifesciences, Irvine, Calif.) was placed via the internal jugular vein and an 18-gauge angiocatheter was placed in the common carotid artery for access to the central arterial system for blood pressure monitoring and arterial blood gas measurements. Both of these lines were transduced using a pressure monitoring kit with a TruWave pressure transducer (Edwards Lifesciences, Irvine, Calif.) and connected to a Hewlett-Packard Monitor 78834A (Palo Alto, Calif.) system for monitoring the systemic and pulmonary arterial pressures and the central venous pressure.
After placement of the arterial and venous lines, a lower midline laparotomy was performed. A 28 French venous return cannula catheter (Edwards Lifesciences, Irvine, Calif.) was placed in the left paracolic gutter and brought out through a separate site in the left lower quadrant and sutured in place using a number 1 Prolene suture (Ethicon, Sommerville, N.J.). A 42 French venous return cannula (Edwards Lifesciences, Irvine, Calif.) was placed in an identical manner on the right side, with the tip lodged above the dome of the liver. The abdomen was then closed in a single layer with a running number I Prolene. In the first two animals in each experimental group, an additional 14 French catheter (Edwards Lifesciences, Irvine, Calif.) was placed near the midline for pressure monitoring purposes and was maintained in a vertical attitude, attached to a ruler such that the height of the column of fluid could be easily monitored. Peritoneal pressure measurements in centimeters of H2O were calculated by multiplying column height by the correction factor 1.67 (specific gravity of trans-bis-perfluorobutyl ethylene).
Hypoxia circuit: A Matrx anesthesia machine (Orchard Park, N.Y.) was used for blending gasses and isoflurane inhaled anesthetic. Pure nitrogen, rather than filtered room air, was mixed with pure oxygen to achieve subatmospheric concentrations of oxygen. The animal was ventilated using a standard bifurcated anesthesia circuit to maintain unidirectional flow of gasses. A Datex machine (Puritan-Bennett Corporation, Overland Park, Kans.) was attached to the ventilation circuit and allowed real-time monitoring of the oxygen and anesthetic agent concentration. […]

[1] = Properties of perfluorocarbon (physical characteristics of neat F44E); type: physicochemical
Excerpt: Perfluorocarbon: Seventy liters of neat perfluorocarbon F44E (trans-bis-perfluorobutyl ethylene) were provided as a generous gift from Neuron Therapeutics, Inc (Malvern, Pa.). This perfluorocarbon is clear, colorless, odorless, immiscible with water or blood and has the physical characteristics listed in Table 1.

FC(F)(F)C(F)(F)C(F)(F)C(F)(F)/C=C/C(F)(F)C(F)(F)C(F)(F)C(F)(F)F [perfluorocarbon, trans-bis-perfluorobutyl ethylene]
Fitted mean PaO2 (Sus scrofa pigs; FiO2 10%, O2 Off): 25.7 mm Hg
Observed mean PaO2 (Sus scrofa pigs; FiO2 10%, O2 Off): 28.0 mm Hg
Fitted mean PaO2 (Sus scrofa pigs; FiO2 10%, O2 On): 35.2 mm Hg
Observed mean PaO2 (Sus scrofa pigs; FiO2 10%, O2 On): 36.7 mm Hg
Observed mean PaO2 (Sus scrofa pigs; FiO2 10%, O2 On, listed as oxygenated perfluorocarbon): 36.7±8.4 mm Hg
Fitted mean PaO2 (Sus scrofa pigs; FiO2 12%, O2 Off): 38.5 mm Hg
Observed mean PaO2 (Sus scrofa pigs; FiO2 12%, O2 Off): 37.1 mm Hg
Fitted mean PaO2 (Sus scrofa pigs; FiO2 12%, O2 On): 44.5 mm Hg
Observed mean PaO2 (Sus scrofa pigs; FiO2 12%, O2 On): 43.8 mm Hg
Fitted mean PaO2 (Sus scrofa pigs; FiO2 14%, O2 Off): 51.3 mm Hg
Observed mean PaO2 (Sus scrofa pigs; FiO2 14%, O2 Off): 48.8 mm Hg
Fitted mean PaO2 (Sus scrofa pigs; FiO2 14%, O2 On): 53.9 mm Hg
Observed mean PaO2 (Sus scrofa pigs; FiO2 14%, O2 On): 55.3 mm Hg
Observed mean PaO2 (Sus scrofa pigs; FiO2 14%, O2 On, listed as oxygenated perfluorocarbon): 55.3±7.6 mm Hg and 55.3 mm Hg
arterial oxygen saturation (SaO2) (Sus scrofa pigs; FiO2 14%, oxygenated perfluorocarbon perfusion (73% with oxygenated saline)): 89%
Fitted mean PaO2 (Sus scrofa pigs; FiO2 16%, O2 Off): 64.2 mm Hg
Observed mean PaO2 (Sus scrofa pigs; FiO2 16%, O2 Off): 63.7 mm Hg
Fitted mean PaO2 (Sus scrofa pigs; FiO2 16%, O2 On): 63.3 mm Hg
Observed mean PaO2 (Sus scrofa pigs; FiO2 16%, O2 On): 64.4 mm Hg
Fitted mean PaO2 (Sus scrofa pigs; FiO2 18%, O2 Off): 77.0 mm Hg
Observed mean PaO2 (Sus scrofa pigs; FiO2 18%, O2 Off): 79.8 mm Hg
Fitted mean PaO2 (Sus scrofa pigs; FiO2 18%, O2 On): 72.7 mm Hg
Observed mean PaO2 (Sus scrofa pigs; FiO2 18%, O2 On): 68.7 mm Hg
Observed mean PaO2 (Sus scrofa pigs; FiO2 18%, O2 On, listed as oxygenated perfluorocarbon): 68.7±10.4 mm Hg
group-by-oxygenation interaction effect (Sus scrofa pigs; average across FiO2 values): about 6.4 mmHg
average mean PaO2 difference perfluorocarbon versus saline (Sus scrofa pigs; oxygenation off, across all FiO2 values): 6.4 mmHg
Fitted treatment effect: mean PaO2 difference perfluorocarbon versus saline (Sus scrofa pigs; FiO2 10%): 9.6 mmHg
Observed treatment effect: mean PaO2 difference perfluorocarbon versus saline (Sus scrofa pigs; FiO2 10%): 8.1 mmHg
Fitted treatment effect: mean PaO2 difference perfluorocarbon versus saline (Sus scrofa pigs; FiO2 12%): 11.4 mmHg
Observed treatment effect: mean PaO2 difference perfluorocarbon versus saline (Sus scrofa pigs; FiO2 12%): 12.4 mmHg
Fitted treatment effect: mean PaO2 difference perfluorocarbon versus saline (Sus scrofa pigs; FiO2 14%): 13.2 mmHg
Observed treatment effect: mean PaO2 difference perfluorocarbon versus saline (Sus scrofa pigs; FiO2 14%): 15.9 mmHg
Fitted treatment effect: mean PaO2 difference perfluorocarbon versus saline (Sus scrofa pigs; FiO2 16%): 15.0 mmHg
Observed treatment effect: mean PaO2 difference perfluorocarbon versus saline (Sus scrofa pigs; FiO2 16%): 18.2 mmHg
Fitted treatment effect: mean PaO2 difference perfluorocarbon versus saline (Sus scrofa pigs; FiO2 18%): 16.8 mmHg
Observed treatment effect: mean PaO2 difference perfluorocarbon versus saline (Sus scrofa pigs; FiO2 18%): 8.2 mmHg
arterial or venous partial pressure of carbon dioxide (PaCO2 or PvCO2), difference between groups (Sus scrofa pigs; perfluorocarbon versus saline, irrespective of FiO2): No statistically significant difference
specific gravity (correction factor for peritoneal pressure) [1]: 1.67
Carbon dioxide capacity ([1]; neat perfluorocarbon F44E): 200 vol %
Oxygen capacity ([1]; neat perfluorocarbon F44E): 50 vol %
Specific gravity ([1]; neat perfluorocarbon F44E): 1.668 g/cc
